Measurements from patent US20250163387A1, “HUMAN PITUITARY NEUROENDOCRINE TUMOR ORGANOIDS AND METHODS OF MAKING AND USING THE SAME” (ARIZONA BOARD OF REGENTS OF THE UNIVERSITY OF ARIZONA, A …, priority 2022, published 2025).
Numbered stars: 1 amine (or outer) side, 2 acyl side, 3 side chain; on linkers, the order of the positions; unused ones are H or OH. Square brackets hold non-standard residues; d marks the D form. Side chains are listed from the residue outwards. Peptide text beside a SMILES is read from it. * marks the point of attachment. Ethylenediamine = C(CN[*:2])N[*:1]; Hyp = O=C(O)[C@@H]1C[C@@H](O)CN1; Phg = N[C@H](C(=O)O)c1ccccc1; CO = O=C([*:1])[*:2]; Bn = c1ccc(C*)cc1

Assays:
SSTR2 = experiment: Differential expression of SSTR2 in iPSC generated pituitary tumor organoids; format: cell-based, human; details: for effect on relacorilant stimulated SSTR2: iPSC organoids; for effect of pretreatment on Mifepristone-induced SSTR2 expression / differential expression of SSTR2: iPSC^ctrl organoids; for effect of pretreatment on Mifepristone-induced SSTR2 expression: GANT 5 uM, Keto 10 uM; for differential expression of SSTR2: drug alone (Mife 500 nM, GANT 5 uM, Keto 10 uM, Dexa 100 nM)
SSTR5 [1] = experiment: Differential expression of SSTR5 in iPSC generated pituitary tumor organoids; format: cell-based, human; details: for effect on relacorilant stimulated SSTR5: iPSC organoids; for effect of pretreatment on Mifepristone-induced SSTR5 expression / differential expression of SSTR5: iPSC^ctrl organoids; for effect of pretreatment on Mifepristone-induced SSTR5 expression: GANT 5 uM, Keto 10 uM; for differential expression of SSTR5: drug alone (Mife 500 nM, GANT 5 uM, Keto 10 uM, Dexa 100 nM)
[2] = test system: transcriptional regulation of POMC by Gli1; experiment: Gene ChIP assay in hPITO cultures expressing USP8 and USP48 mutations; format: cell-based, human
hPITO35 = details: for Dose response (cell viability): organoid 35, compared to Cabergoline
Description: (§1) Organoids were grown in Matrigel™ domes within 96-well round-bottom culture plates. Recombinant human SHH was removed from the pituitary organoid growth media, 24 hrs. prior to drug treatment. Organoids were treated with either vehicle (DMSO), cabergoline (Selleckchem S5842), ketoconazole (Selleckchem S1353), roscovitine (Selleckchem S1153), GANT61 (Stemcell Technologies 73692), pasireotide (TargetMol TP2207), mifeprostone (Selleckchem S2606), etomidate (Selleckchem S1329), mitotane (Selleckchem S1732), metyropane (Selleckchem S5416), or osilodrostat (Selleckchem S7456) at concentrations of 0, 1, 10, 100, 1000, and 10000 nM for 72 hours. Percent cell viability was measured using an MTS assay (Promega G3580). Absorbance was measured at 490 nm and normalized to the vehicle. Concentrations were plotted in a logarithmic scale, and a nonlinear dose-response curve regression was calculated using GraphPad Prism. An IC50 value for each drug treatment was determined based on the dose response curve using GraphPad Prism analysis software.

iPSC^USP48MV organoids [3] = experiment: ACTH secretion ELISA of conditioned media; format: cell-based, human; details: for effect on ACTH secretion in response to Mifepristone: 100 nM with Mife 500 nM
Description: (§2) Concentration of secreted ACTH in conditioned media that was collected from organoid cultures was measured using the Human ACTH ELISA Kit (Novus Biologicals, NBP2-66401) according to the manufacturer's protocol. The enzyme-substrate reaction was measured spectrophotometrically (BioTek Gen5 Micro Plate Reader Version 3.11) at a wavelength of 450 nm and the ACTH concentration (pg/mL) was interpolated using a standard curve with a 4-parameter logistic regression analysis using GraphPad Prism (Version 9.2.0).

iPSC^ctrl organoids [4] = experiment: ACTH secretion ELISA of conditioned media; format: cell-based, human; details: for effect on ACTH secretion in response to Mifepristone: 100 nM with Mife 500 nM
Description: as §2

iPSC^USP48MV organoids [5] = experiment: Proliferation by EdU uptake; format: cell-based, human; details: 100 nM
Description: (§3) Organoids were immunostained using published protocols by our laboratory. Proliferation was measured by using 5-ethynyl-2'-deoxyuridine (EdU) incorporation according to the Manufacturer's protocol (Click-IT EdU Alexa Fluor 555 Imaging Kit, Thermo Fisher Scientific C10338). Costaining was performed by blocking fixed organoids with 2% donkey serum (Jackson Immuno Research, #017-000-121) diluted in 0.01% PBST for 1 hr. at room temperature. Organoids were then incubated overnight at 4° C. with primary antibodies followed by secondary antibodies and Hoechst (Thermo Fisher Scientific H1399, 1:1000 in 0.01% PBST) for 1 hr at room temperature. Human specific primary antibodies used included: rabbit anti-ACTH (Thermo Fisher Scientific 701293, 1:250), rabbit anti-Synaptophysin (Thermo Fisher Scientific PA5-27286, 1:100), […] (Thermo Fisher Scientific PA5-98650, 1:50), rabbit anti-LH (Thermo Fisher Scientific PA5-102674, 1:100), mouse anti-FSH (Thermo Fisher Scientific MIF2709, 1:100), mouse anti-PRL (Thermo Fisher Scientific CF500720, 1:100), Alexa Flour conjugated GH (NB500-364AF647, 1:100) and mouse anti-CAM5.2 (SIGMA […]-95, 1:250). The secondary antibodies used included Alexa Fluor 488 Donkey Anti Rabbit IgG (H+L) (Thermo Fisher Scientific A21206, 1:100) or Alexa Fluor 647 Donkey Anti Mouse IgG (H+L) (Thermo Fisher Scientific A31571, 1:100). Organoids were visualized and images acquired by confocal microscopy using the Nikon CrestV2 Spinning Disk. Fluorescence intensity and percentage of EdU positive cells of total cells, were calculated using Nikon Elements Software (Version 5.21.05).

iPSC^ctrl organoids [6] = experiment: Proliferation by EdU uptake; format: cell-based, human; details: 100 nM
Description: as §3

hPITO34 = test system: hPITO34
Description: as §1

[7] = monotherapy; cited from earlier work
hPITO37 = experiment: Spectral flow cytometry (SSTR2, SSTR5, ACTH, zombie); format: cell-based, human; details: Pas 837.5 nM, Mife 2.85 nM
Description: The multicolor flow cytometry panel was designed using the Cytek®Full Spectrum Viewer online tool to calculate the similarity index. The organoids were harvested in cold SFDM media and centrifuged at 400×g for 5 minutes. Supernatant was discarded and organoids were dissociated to single cells using Accutase® (Thermo Fisher Scientific 00-4555-56). The enzymatic reaction was stopped using prewarmed DPBS and cells were then centrifuged at 400×g for 5 minutes and incubated with fluorochrome-conjugated/unconjugated primary surface or cytoplasmic antibodies at 4° C. for 30 minutes. Cells were then washed with Cell Staining Buffer (BioLegend #420-201) and incubated with secondary antibodies at 4° C. for 30 minutes. Cells were fixed using Cytofix/Cytoperm™ Fixation/Permeabilization Solution (BD Biosciences #554714) at 4° C. for 20 minutes, followed by washing with Fixation/Permeabilization wash buffer. Cells were then labeled with fluorochrome-conjugated/unconjugated intracellular primary antibodies at 4° C. for 30 minutes, washed and incubated with secondary antibodies at 4° C. for 30 minutes. Cells resuspended in cell staining buffer and fluorescence measured using the Cytek Aurora 5 Laser Spectral Flow Cytometer. An unstained cell sample was fixed and used as reference control. UltraComp eBeads™, Compensation Beads (Thermo Fisher Scientific #01-2222-42) were stained with the individual antibodies and used as single stain control for compensation and gating. Data was acquired using the Cytek™ Aurora and analyzed using Cytobank software (Beckman Coulter, Indianapolis, IN).

SSTR5 [8] = molecular target: SSTR5 (Homo sapiens, UniProt P35346); details: cited from earlier work
Chain of SSTR5 (Homo sapiens, UniProt P35346) (P35346 whole entry): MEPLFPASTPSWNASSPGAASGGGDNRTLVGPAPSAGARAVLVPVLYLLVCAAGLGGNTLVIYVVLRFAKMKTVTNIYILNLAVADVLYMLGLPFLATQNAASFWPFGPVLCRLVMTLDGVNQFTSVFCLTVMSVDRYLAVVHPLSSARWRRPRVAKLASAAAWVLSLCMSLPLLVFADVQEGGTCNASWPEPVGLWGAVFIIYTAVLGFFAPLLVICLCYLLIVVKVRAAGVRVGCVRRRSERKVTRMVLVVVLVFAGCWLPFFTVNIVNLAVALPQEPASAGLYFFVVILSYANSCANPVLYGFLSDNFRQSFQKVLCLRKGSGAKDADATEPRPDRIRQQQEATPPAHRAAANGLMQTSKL

hPITO33 = experiment: Drug dose response, MTS cell viability assay; format: cell-based, human
[9] = test system: hPITOs generated from CD patients; experiment: High-throughput drug screen, MTS assay; format: cell-based, human; details: 1 uM, 72 hrs
Description: Patient adenoma-derived pituitary organoids were grown in 96-well plates and treated with 147 small molecules taken from the NCI AOD9 compound library for 72 hrs. (https://dtp.cancer.gov/organization/dscb/obtaining/available_plates.html). Drugs were diluted from 10 mM DMSO stock plates into 100 uM DMSO working stocks with a final concentration of 1 uM. All vehicle controls were treated with 0.1% DMSO. Organoid proliferation was measured using CellTiter 96® AQueous One Solution Cell Proliferation Assay kit (MTS, Promega, G3582) according to the manufacturer's instruction. Organoid death was calculated based on the absorbance readings at 490 nm, collected from the MTS assay relative to the vehicle controls. Drug screens were performed with biological replicates in same screen. Drugs were selected based on their ability to target key signaling pathways and clinical relevance to the treatment. Drug sensitivity is represented by cell viability and is significant at <0.5 suppressive effect of the drugs. The percent cell viability relative to the vehicle control was calculated. Correlation coefficient across each organoid were calculated using Pearson method to assess confidence in replication. Variance Component was detected for each drug across all organoids. A random effect model was run with a single random factor for each drug and estimated variance was calculated by rejecting the null hypothesis that there isn't variation among samples. The drug responses were grouped by variance factor large (vc>100), median (100>vc>50), and small (vc<50). Heatmap was used to display the differential responses in cell viability for the drugs.
Tumor recurrence can occur in as many as 30-50% of CD patients after successful surgical treatment. Unfortunately, bilateral adrenalectomy is the chosen surgical treatment for patients with persistent CD [35]. Bilateral adrenalectomy leads to the increased risk for development of Nelson's syndrome (progressive hyperpigmentation due to ACTH secretion and expansion of the residual pituitary tumor). Although the risk of developing Nelson's syndrome following adrenalectomy can be reduced by 50% with stereotactic radiotherapy, there is a need to develop medical therapies that directly target the pituitary adenoma. Thus, we established a high-throughput drug screening assay using patient-derived pituitary organoids. […] The replicates behaved consistently with the drug response with the correlation scores of >0.8 for these samples (FIG. 3a). We estimated the variance component for each drug across all organoids. […] The drug responses were grouped by variance factor large, median, and small. The larger the variance the more variable is the drug response across the organoids. […]

[10] = greater magnitude than Octreotide plus relacorilant

Structure (SMILES): CN(C)c1ccccc1CN1CCCN(Cc2ccccc2N(C)C)C1c1ccncc1 [GANT61]
- effect on relacorilant stimulated SSTR2 (SSTR2): inhibited
- effect of pretreatment on Mifepristone-induced SSTR2 expression (SSTR2): reduced
- differential expression of SSTR2 (SSTR2): no effect
- effect on relacorilant stimulated SSTR5 (SSTR5 [1]): inhibited
- effect of pretreatment on Mifepristone-induced SSTR5 expression (SSTR5 [1]): reduced
- differential expression of SSTR5 (SSTR5 [1]): no effect
- transcriptional regulation of POMC by Gli1 (ChIP) [2]: blocked

Structure (SMILES): CC(C)(C(=O)c1cccnc1)c1cccnc1 [Metyrapone]
- Dose response (cell viability) (hPITO35): better responses than Cabergoline

Structure (SMILES): C[C@@H](O)[C@@H]1NC(=O)[C@H](CCCCN)NC(=O)[C@@H](Cc2c[nH]c3ccccc23)NC(=O)[C@H](Cc2ccccc2)NC(=O)[C@@H](NC(=O)[C@H](N)Cc2ccccc2)CSSC[C@@H](C(=O)N[C@H](CO)[C@@H](C)O)NC1=O [Octreotide]
- effect on ACTH secretion in response to Mifepristone (iPSC^USP48MV organoids [3]): significantly reduced
- effect on ACTH secretion in response to Mifepristone (iPSC^ctrl organoids [4]): significantly reduced
- effect of pretreatment on the proliferative response to Mife (iPSC^USP48MV organoids [5]): inhibited
- effect of pretreatment on the proliferative response to Mife (iPSC^ctrl organoids [6]): inhibited

Structure (SMILES): NCCCC[C@@H]1NC(=O)[C@@H](Cc2c[nH]c3ccccc23)NC(=O)[C@H](c2ccccc2)NC(=O)[C@@H]2C[C@@H](OC(=O)NCCN)CN2C(=O)[C@H](Cc2ccccc2)NC(=O)[C@H](Cc2ccc(OCc3ccccc3)cc2)NC1=O [Pasireotide] (cyclo([Hyp]([CO-Ethylenediamine])[Phg][dW]KY(Bn)F))
- effect on ACTH secretion in response to Mifepristone (iPSC^USP48MV organoids [3]): significantly reduced
- hormone (ACTH) secretion in combination with relacorilant (iPSC^USP48MV organoids [3]; [10]): reduced hormone secretion
- effect on ACTH secretion in response to Mifepristone (iPSC^ctrl organoids [4]): significantly reduced
- hormone (ACTH) secretion in combination with relacorilant (iPSC^ctrl organoids [4]; [10]): reduced hormone secretion
- effect of pretreatment on the proliferative response to Mife (iPSC^USP48MV organoids [5]): no effect
- effect of pretreatment on the proliferative response to Mife (iPSC^ctrl organoids [6]): no effect
- IC50 (hPITO34; hPITO34, 72 hours, MTS cell viability): 6.1 nM
- IC50 (hPITO35; hPITO35, 72 hours, MTS cell viability): 1000 nM
- patients with CD in whom cortisol is normalized [7]: up to 42%
- effect of pretreatment on Mife-increased number of ACTH expressing cells (hPITO37): not inhibited
- binding to SSTR5 (SSTR5 [8]): high-affinity binding
- IC50 (hPITO33; hPITO33, 72 hours, MTS cell viability): 1200 nM

Structure (SMILES): C=CCN1C[C@H](C(=O)N(CCCN(C)C)C(=O)NCC)C[C@@H]2c3cccc4[nH]cc(c34)C[C@H]21 [cabergoline]
- response of the adenoma cells within the organoids ([9]; hPITO7, 10 and 25): ~0%
- response of the adenoma cells within the organoids ([9]; hPITO34 and hPITO35): 50%
- Dose response (cell viability) (hPITO34; organoid 34, compared to Metyrapone and osilodrostat): better response at lower dose
- Dose response (cell viability) (hPITO33; organoid 33, compared to Metyrapone and osilodrostat): better response at lower dose

Structure (SMILES): CC(=O)N1CCN(c2ccc(OCC3COC(Cn4ccnc4)(c4ccc(Cl)cc4Cl)O3)cc2)CC1 (centres unmarked) [ketoconazole]
- effect on relacorilant stimulated SSTR2 (SSTR2): failed to block
- effect of pretreatment on Mifepristone-induced SSTR2 expression (SSTR2): no effect
- differential expression of SSTR2 (SSTR2): no effect
- effect on relacorilant stimulated SSTR5 (SSTR5 [1]): failed to block
- effect of pretreatment on Mifepristone-induced SSTR5 expression (SSTR5 [1]): no effect
- differential expression of SSTR5 (SSTR5 [1]): no effect

Structure (SMILES): N#Cc1ccc([C@H]2CCc3cncn32)c(F)c1 [osilodrostat]
- Dose response (cell viability) (hPITO35): better responses than Cabergoline
